Read-outs that look alike come from different tables or passages of the source.
What was measured:
Format in all cases: cell-based, human
[1] = test system: T cell line 024; test: Proliferation of CD4+ T cell line 024; settings: T cell line 024 initiated on day 71, autologous APCs
[2] = test system: fresh PBMCs from patient 024
[3] = test system: fresh PBMCs from asymptomatic HIV-1+ patients
[4] = test system: fresh PBMCs from patient 744; test: Proliferation assay of fresh PBMCs from patient 744

Row | Substance | Stimulation of T cell line 024, result in words [1] | Proliferative response (SI) [2] | Mean proliferation (SI) ([3]; Total, 43 patients) | Mean proliferation (SI) ([3]; patients responding to PHA and tetanus toxoid only (n = 12)) | Mean proliferation (SI) ([3]; patients responding to PHA, tetanus toxoid, and HIV antigens (n = 12)) | Proliferation of fresh PBMCs from patient 744, result in words [4]
1 | LRPGGKKQYRLKHIV [p17-3/2] | failed to stimulate | – | – | – | – | –
2 | LRPRGKKRYKLKHIV [p17-3/1] | failed to stimulate | 1 | – | – | – | –
3 | Tetanus toxoid: the recall antigen tetanus toxoid | – | – | 21 ± 65 | 45 ± 117 | 31 ± 32 | showed a response
